Several values for one entry are separate records, joined by “and”; a condition that tells them apart may be missing. Equal values may be shown once. Inconclusive results and toxic doses are left out. Cut-off read from the data, not from the text of the source: active = T/C of 150% or more; inactive = T/C below 125%.
System: L1210 leukemia ip in BDF1 mice, survival T/C
Experiment: NCI In Vivo Anticancer Drug Screen. Data for tumor model L1210 Leukemia (intraperitoneal) in B6D2F1 (BDF1) mice
Conditions: higher = longer survival
How it was run: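 Antitumor effect is assessed in tumor-bearing animals. Survival in the compound arm is compared with a vehicle-dosed control arm and expressed as their quotient.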

[1] = endpoint: mean survival time, dose: 100.0 mg/kg/injection, schedule: Q01DX001 (ip), vehicle: carboxymethylcellulose (CMC)
[2] = endpoint: mean survival time, dose: 200.0 mg/kg/injection, schedule: Q01DX001 (ip), vehicle: carboxymethylcellulose (CMC)
[3] = endpoint: mean survival time, dose: 50.0 mg/kg/injection, schedule: Q01DX009 (ip), vehicle: Klucel (hydroxypropylcellulose) (HPC)
[4] = endpoint: mean survival time, dose: 100.0 mg/kg/injection, schedule: Q01DX009 (ip), vehicle: Klucel (hydroxypropylcellulose) (HPC)
[5] = endpoint: mean survival time, dose: 50.0 mg/kg/injection, schedule: Q01DX001 (ip), vehicle: carboxymethylcellulose (CMC)
[6] = endpoint: mean survival time, dose: 100.0 mg/kg/injection, schedule: Q01DX001 (ip), vehicle: saline
[7] = endpoint: mean survival time, dose: 200.0 mg/kg/injection, schedule: Q01DX001 (ip), vehicle: saline
[8] = endpoint: mean survival time, dose: 400.0 mg/kg/injection, schedule: Q01DX001 (ip), vehicle: saline
[9] = endpoint: mean survival time, dose: 100.0 mg/kg/injection, schedule: Q01DX009 (ip), vehicle: saline with Tween-80
[10] = endpoint: mean survival time, dose: 200.0 mg/kg/injection, schedule: Q01DX009 (ip), vehicle: saline with Tween-80
[11] = endpoint: mean survival time, dose: 400.0 mg/kg/injection, schedule: Q01DX009 (ip), vehicle: saline with Tween-80
[12] = endpoint: mean survival time, dose: 100.0 mg/kg/injection, schedule: Q04DX003 (ip), vehicle: saline
[13] = endpoint: mean survival time, dose: 200.0 mg/kg/injection, schedule: Q04DX003 (ip), vehicle: saline
[14] = endpoint: mean survival time, dose: 400.0 mg/kg/injection, schedule: Q04DX003 (ip), vehicle: saline
[15] = endpoint: mean survival time, dose: 100.0 mg/kg/injection, schedule: Q01DX009 (ip), vehicle: saline

Measured: T/C

COC(=O)c1ccccc1N=NN(C)C
inactive: [1] 102 % of control | [2] 102 % of control | endpoint: median survival time, dose: 65.0 mg/kg/injection, schedule: Q01DX001 (ip), vehicle: steriod suspending solution 110 % of control | endpoint: median survival time, dose: 108.0 mg/kg/injection, schedule: Q01DX001 (ip), vehicle: steriod suspending solution 105 % of control | endpoint: median survival time, dose: 180.0 mg/kg/injection, schedule: Q01DX001 (ip), vehicle: steriod suspending solution 120 % of control | endpoint: median survival time, dose: 300.0 mg/kg/injection, schedule: Q01DX001 (ip), vehicle: steriod suspending solution 105 % of control

CSc1ncc(C(=O)O)c(=O)[nH]1
inactive: [3] 95 % of control | [4] 88 % of control and 90 % of control | endpoint: mean survival time, dose: 100.0 mg/kg/injection, schedule: Q04DX003 (ip), vehicle: Klucel (hydroxypropylcellulose) (HPC) 104 % of control | endpoint: mean survival time, dose: 200.0 mg/kg/injection, schedule: Q01DX009 (ip), vehicle: Klucel (hydroxypropylcellulose) (HPC) 94 % of control | endpoint: mean survival time, dose: 200.0 mg/kg/injection, schedule: Q04DX003 (ip), vehicle: Klucel (hydroxypropylcellulose) (HPC) 101 % of control | endpoint: mean survival time, dose: 400.0 mg/kg/injection, schedule: Q01DX009 (ip), vehicle: Klucel (hydroxypropylcellulose) (HPC) 88 % of control | endpoint: mean survival time, dose: 400.0 mg/kg/injection, schedule: Q04DX003 (ip), vehicle: Klucel (hydroxypropylcellulose) (HPC) 102 % of control

CC1(C)CC(N)CC(C)(C)N1
inactive: [5] 107 % of control | [1] 103 % of control

Cc1cc(C(=O)O)c2cc(Br)ccc2n1
inactive: endpoint: mean survival time, dose: 25.0 mg/kg/injection, schedule: Q01DX009 (ip), vehicle: Klucel (hydroxypropylcellulose) (HPC) 100 % of control | [3] 98 % of control | [4] 96 % of control

Oc1cccc(N=Cc2ccccc2O)c1
inactive: endpoint: mean survival time, dose: 100.0 mg/kg/injection, schedule: Q01DX001 (ip), vehicle: Klucel (hydroxypropylcellulose) (HPC) 102 % of control | [6] 97 % of control | endpoint: mean survival time, dose: 200.0 mg/kg/injection, schedule: Q01DX001 (ip), vehicle: Klucel (hydroxypropylcellulose) (HPC) 96 % of control | [7] 100 % of control | endpoint: mean survival time, dose: 400.0 mg/kg/injection, schedule: Q01DX001 (ip), vehicle: Klucel (hydroxypropylcellulose) (HPC) 101 % of control | [8] 105 % of control

CCOC(=O)Nc1cc2ccncc2c2sc3ccccc3c12
inactive: endpoint: mean survival time, dose: 100.0 mg/kg/injection, schedule: Q04DX003 (ip), vehicle: water 92 % of control | endpoint: mean survival time, dose: 200.0 mg/kg/injection, schedule: Q04DX003 (ip), vehicle: water 87 % of control | endpoint: mean survival time, dose: 400.0 mg/kg/injection, schedule: Q04DX003 (ip), vehicle: water 101 % of control

O=S(=O)(Nc1cc2c(nc3ccccn32)c2ccccc12)c1ccccc1
inactive: endpoint: mean survival time, dose: 50.0 mg/kg/injection, schedule: Q01DX001 (ip), vehicle: saline 103 % of control

CC(=O)[O][Hg][c]1s[c]([Hg][O]C(C)=O)[c]([Hg][O]C(C)=O)[c]1[Hg][O]C(C)=O
inactive: endpoint: mean survival time, dose: 6.25 mg/kg/injection, schedule: Q04DX003 (ip), vehicle: Klucel (hydroxypropylcellulose) (HPC) 104 % of control | endpoint: mean survival time, dose: 12.5 mg/kg/injection, schedule: Q04DX003 (ip), vehicle: Klucel (hydroxypropylcellulose) (HPC) 102 % of control | endpoint: mean survival time, dose: 25.0 mg/kg/injection, schedule: Q04DX003 (ip), vehicle: Klucel (hydroxypropylcellulose) (HPC) 95 % of control | endpoint: mean survival time, dose: 50.0 mg/kg/injection, schedule: Q04DX003 (ip), vehicle: Klucel (hydroxypropylcellulose) (HPC) 101 % of control

O=C(O)Cc1ccc(Cl)c2ccccc12
inactive: endpoint: mean survival time, dose: 100.0 mg/kg/injection, schedule: Q04DX002 (ip), vehicle: Klucel (hydroxypropylcellulose) (HPC) 101 % of control | endpoint: mean survival time, dose: 200.0 mg/kg/injection, schedule: Q04DX002 (ip), vehicle: Klucel (hydroxypropylcellulose) (HPC) 104 % of control | endpoint: mean survival time, dose: 400.0 mg/kg/injection, schedule: Q04DX002 (ip), vehicle: Klucel (hydroxypropylcellulose) (HPC) 107 % of control

Cc1ccc(C)c(Br)c1C
inactive: [9] 104 % of control | endpoint: mean survival time, dose: 100.0 mg/kg/injection, schedule: Q04DX002 (ip), vehicle: saline with Tween-80 104 % of control | [10] 104 % of control | endpoint: mean survival time, dose: 200.0 mg/kg/injection, schedule: Q04DX002 (ip), vehicle: saline with Tween-80 101 % of control | [11] 101 % of control | endpoint: mean survival time, dose: 400.0 mg/kg/injection, schedule: Q04DX002 (ip), vehicle: saline with Tween-80 101 % of control

Cc1ccc(NC(=O)N(O)C2CCCCC2C#N)cc1 (stereo not given)
inactive: [7] 96 % of control | [8] 91 % of control

CCOC(=O)C1CC(C)=C(C)CC1C(=O)O (stereo not given)
inactive: [9] 87 % of control | endpoint: mean survival time, dose: 100.0 mg/kg/injection, schedule: Q04DX003 (ip), vehicle: saline with Tween-80 98 % of control | [10] 97 % of control | endpoint: mean survival time, dose: 200.0 mg/kg/injection, schedule: Q04DX003 (ip), vehicle: saline with Tween-80 90 % of control | [11] 92 % of control | endpoint: mean survival time, dose: 400.0 mg/kg/injection, schedule: Q04DX003 (ip), vehicle: saline with Tween-80 98 % of control

O=C(SCCN1CCCC1)C(O)(c1ccccc1)C1CCCC1 (stereo not given)
inactive: endpoint: mean survival time, dose: 75.0 mg/kg/injection, schedule: Q01DX001 (ip), vehicle: carboxymethylcellulose (CMC) 92 % of control | endpoint: mean survival time, dose: 150.0 mg/kg/injection, schedule: Q01DX001 (ip), vehicle: carboxymethylcellulose (CMC) 96 % of control | endpoint: mean survival time, dose: 300.0 mg/kg/injection, schedule: Q01DX001 (ip), vehicle: carboxymethylcellulose (CMC) 96 % of control

Cc1cc2ncn(CC(=O)O)c2cc1C
inactive: [12] 101 % of control | [13] 95 % of control | [14] 97 % of control

CN=C(Nc1ccc(N(C)C)cc1)SC
inactive: endpoint: mean survival time, dose: 75.0 mg/kg/injection, schedule: Q01DX001 (ip), vehicle: other 105 % of control | endpoint: mean survival time, dose: 150.0 mg/kg/injection, schedule: Q01DX001 (ip), vehicle: other 103 % of control

O=C(CC(=O)Nc1ccccc1)Cc1ccccc1
inactive: [6] 102 % of control | [15] 93 % of control | [7] 88 % of control | endpoint: mean survival time, dose: 200.0 mg/kg/injection, schedule: Q01DX009 (ip), vehicle: saline 90 % of control | [8] 93 % of control | endpoint: mean survival time, dose: 400.0 mg/kg/injection, schedule: Q01DX009 (ip), vehicle: saline 93 % of control

COC(=O)Cc1cccc(=O)c(O)c1C(=O)OC
inactive: [5] 102 % of control | [1] 102 % of control | [2] 104 % of control | endpoint: mean survival time, dose: 400.0 mg/kg/injection, schedule: Q01DX001 (ip), vehicle: carboxymethylcellulose (CMC) 102 % of control

CN(C)CC(=O)N/N=C\c1ccc([N+](=O)[O-])s1
inactive: [12] 91 % of control | [13] 93 % of control

NC(=O)C(O)(c1ccccc1)c1ccccc1
inactive: endpoint: mean survival time, dose: 100.0 mg/kg/injection, schedule: Q01DX001 (ip), vehicle: saline with Tween-80 100 % of control | endpoint: mean survival time, dose: 200.0 mg/kg/injection, schedule: Q01DX001 (ip), vehicle: saline with Tween-80 97 % of control | endpoint: mean survival time, dose: 400.0 mg/kg/injection, schedule: Q01DX001 (ip), vehicle: saline with Tween-80 101 % of control

CCN(CC)CCOc1ccc(C)cc1
inactive: endpoint: mean survival time, dose: 50.0 mg/kg/injection, schedule: Q01DX009 (ip), vehicle: saline 97 % of control | [15] 89 % of control

CN(C)CCS(=O)(=O)O
inactive: [12] 104 % of control | [13] 104 % of control | [14] 104 % of control

NC(=O)Nc1ccc(/C=C2\C=Cc3ccccc32)cc1
inactive: endpoint: mean survival time, dose: 75.0 mg/kg/injection, schedule: Q01DX001 (ip), vehicle: saline 96 % of control | endpoint: mean survival time, dose: 150.0 mg/kg/injection, schedule: Q01DX001 (ip), vehicle: saline 93 % of control | endpoint: mean survival time, dose: 300.0 mg/kg/injection, schedule: Q01DX001 (ip), vehicle: saline 94 % of control
